Laboratory results taken from PubChem BioAssay (NCI).
Where “and” joins values, the source holds several entries; their conditions need not be identical. Identical values can stand only once.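 A five-concentration, 48-hour dose response in 96-well plates underlies each endpoint, interpolated linearly between surrounding concentrations. GI50 marks 50% less growth. TGI is the concentration that stops growth completely.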

Columns and labels:
Assay in all cases: DTP human tumour cell line panel, 48 h
[1] = tested on: KM12 colon
[2] = tested on: NCI/ADR-RES ovarian
[3] = tested on: SF-295 CNS
[4] = tested on: RPMI-8226 leukemia
[5] = tested on: M14 melanoma
[6] = tested on: RXF 393 renal
[7] = tested on: HS 578T breast
[8] = tested on: BT-549 breast
[9] = tested on: 786-0 renal
[10] = tested on: NCI-H522 lung

Row | Structure (SMILES) | GI50 [1] | TGI [1] | GI50 [2] | TGI [2] | GI50 [3] | TGI [3] | GI50 [4] | TGI [4] | GI50 [5] | TGI [5] | GI50 [6] | TGI [6] | GI50 [7] | TGI [7] | GI50 [8] | TGI [8] | GI50 [9] | TGI [9] | GI50 [10] | TGI [10]
1 | Nc1c(C(=O)Nc2cccc3ccccc23)sc2nc3c(cc12)CCCCCC3 | 1.39 µM | > 50 µM | 0.784 µM | > 50 µM | 1.39 µM | > 50 µM | 2.03 µM | > 50 µM | 1.05 µM | > 50 µM | 1.5 µM | > 50 µM | 1.59 µM | > 50 µM | 0.954 µM | 4.81 µM | 2.13 µM | > 50 µM | 0.865 µM | 4.33 µM
2 | c1ccc(Oc2cnc3ccccc3n2)cc1 | > 100 µM | > 100 µM | > 100 µM | > 100 µM | 36.4 µM | > 100 µM | > 100 µM | > 100 µM | > 100 µM | > 100 µM | 31.9 µM | > 100 µM | 30.3 µM | > 100 µM | 12 µM | 68.3 µM | > 100 µM | > 100 µM | > 100 µM | > 100 µM
3 | CC(NC(=O)C1(N)CCCC1)C(=O)O (centres undefined) | – | > 100 µM | – | > 100 µM | – | > 100 µM | – | > 100 µM | – | > 100 µM | – | > 100 µM | – | > 100 µM | – | > 100 µM | – | > 100 µM | – | > 100 µM
4 | CC(=O)O[C@H]1CC[C@@]2(C)[C@@H](CC[C@@H]3[C@@H]2CC(=O)[C@@]2(C)[C@H]3C[C@@H]3CC(C)=CC(=O)[C@@H]32)C1 | – | > 100 µM | – | > 100 µM | – | > 100 µM | – | 45.8 µM | – | > 100 µM | – | 86.7 µM | – | 80.3 µM | – | 71.2 µM | – | > 100 µM | – | > 100 µM
5 | O=C1COCCN1c1ccc(NCc2cn(Cc3ccc(F)cc3)c3ccccc23)cc1 | 15 µM | > 75.9 µM | 5.44 µM | 45.3 µM | 0.927 µM | 27.5 µM | 0.662 µM | 8.8 µM | 5.46 µM | 40.8 µM | 0.911 µM | 5.76 µM | 3.41 µM | 44.1 µM | 3.47 µM | 22.4 µM | 2.7 µM | 41 µM | 2.75 µM | 17.8 µM
6 | CCOc1ccc(-n2cc(-c3ccc(N(C)C)cc3)[n+]3c2CCCCC3)cc1 | 0.168 µM | 27.8 µM | 31.1 µM | > 100 µM | 0.618 µM | 5.43 µM | 0.0567 µM | > 24.9 µM | 1.46 µM | 33.8 µM | 4.51 µM | > 90.3 µM | 3.33 µM | > 100 µM | 0.406 µM | 29.1 µM | 2.69 µM | > 100 µM | 0.125 µM | 3.91 µM
7 | COc1cc2c(cc1OC)-c1c(c3ccc([N+](=O)[O-])cc3c(=O)n1CCCBr)C2=O | 29.8 µM | > 100 µM | 5.91 µM | > 100 µM | 9.07 µM | > 100 µM | 3.33 µM | > 100 µM | 2.39 µM | 26.7 µM | 44.3 µM | > 100 µM | > 100 µM | > 100 µM | > 100 µM | > 100 µM | 2.93 µM | > 100 µM | 6.41 µM | > 100 µM
8 | O=P1(NCCCl)OCCC(OO)N1CCCl (centres undefined) | – | > 100 µM | – | > 100 µM | – | > 100 µM | – | > 100 µM | – | > 57 µM | – | 32.4 µM | – | > 100 µM | – | > 100 µM | – | 99.7 µM | – | 25.6 µM
9 | COc1nc(C(Cl)(Cl)Cl)c(Cl)c(OC)c1Cl | > 56.7 µM | > 91 µM and 70.1 µM | – | 58.4 µM | – | > 56.9 µM and 75.3 µM | > 41.1 µM | > 62.9 µM and 112 µM | > 52 µM | > 83.7 µM and 74.5 µM | – | > 55.1 µM and 71.8 µM | – | 75.5 µM | – | 71.3 µM | > 41.1 µM | > 55.3 µM and 18.8 µM | – | > 31.6 µM and 70.4 µM
